Assay results from US20030216571A1, “Tricyclic compounds” (priority 1999, published 2003).

SMILES	melting point
O=S(=O)([O-])CCSC1c2ccccc2COc2ccc(/C=C/c3ccc4cc(F)c(F)cc4n3)cc21.[Na+] (centres unmarked)	246 to 254 °C
N#Cc1cccc2c1COc1ccc(/C=C/c3ccc4cc(F)c(F)cc4n3)cc1C2SCCC(=O)O (centres unmarked)	261 to 264 °C (dec.)
O=C(O)CCSC1c2cc(/C=C/c3ccc4cc(F)c(Cl)cc4n3)ccc2OCc2c(F)cccc21 (centres unmarked)	238 to 241 °C
O=C(O)CC1(CSC2c3cc(/C=C/c4ccc5cc(F)c(Cl)cc5n4)ccc3OCc3c(F)cccc32)CC1 (centres unmarked)	237 to 239 °C
O=C([O-])CCSC1c2ccccc2COc2ccc(/C=C/c3ccc4ccc(F)cc4n3)cc21.[Na+] (centres unmarked)	160 to 163 °C
O=C([O-])CC1(CSC2c3ccccc3COc3ccc(/C=C/c4ccc5ccc(F)cc5n4)cc32)CC1.[Na+] (centres unmarked)	149 to 152 °C
O=C(O)CCSC1c2ccccc2COc2ccc(/C=C/c3ccc4ccc(Cl)cc4n3)cc21 (centres unmarked)	195 to 198 °C
O=C(O)CC1(CSC2c3ccccc3COc3ccc(/C=C/c4ccc5ccc(Cl)cc5n4)cc32)CC1 (centres unmarked)	204 to 206 °C
O=C(O)CCSC1c2ccccc2COc2ccc(/C=C/c3ccc4c(n3)CCCC4)cc21 (centres unmarked)	150 to 153 °C
O=C([O-])CC1(CSC2c3ccccc3COc3ccc(/C=C/c4ccc5c(n4)CCCC5)cc32)CC1.[Na+] (centres unmarked)	142 to 145 °C
O=C([O-])CCSC1c2ccccc2COc2ccc(/C=C/c3cc(Cl)c4ccccc4n3)cc21.[Na+] (centres unmarked)	140 to 142 °C
O=C([O-])CCSC1c2ccccc2COc2ccc(/C=C/c3ccc4c(F)cccc4n3)cc21.[Na+] (centres unmarked)	150 to 152 °C
O=C([O-])CC1(CSC2c3ccccc3COc3ccc(/C=C/c4ccc5c(F)cccc5n4)cc32)CC1.[Na+] (centres unmarked)	142 to 144 °C
O=C([O-])CC1(CSC2c3ccccc3COc3ccc(/C=C/c4ccc5c(F)cc(F)cc5n4)cc32)CC1.[Na+] (centres unmarked)	149 to 152 °C
O=C([O-])CCSC1c2ccccc2COc2ccc(/C=C/c3nc4cc(F)ccc4s3)cc21.[Na+] (centres unmarked)	> 300 °C
O=C([O-])CC1(CSC2c3ccccc3COc3ccc(/C=C/c4nc5cc(F)ccc5s4)cc32)CC1.[Na+] (centres unmarked)	155 to 157 °C
O=C([O-])CCSC1c2ccccc2COc2ccc(/C=C/c3nc4cc(F)ccc4o3)cc21.[Na+] (centres unmarked)	247 to 250 °C
Cc1ccc(/C=C/c2ccc3c(c2)C(SCCC(=O)[O-])c2ccccc2CO3)nc1C(C)C.[Na+] (centres unmarked)	137 to 139 °C
O=C([O-])CCSC1c2ccccc2CSc2ccc(/C=C/c3ccc4cc(F)c(F)cc4n3)cc21.[Na+] (centres unmarked)	144 to 148 °C
O=C(CSC1c2ccccc2COc2ccc(/C=C/c3ccc4cc(F)c(F)cc4n3)cc21)NS(=O)(=O)C(F)(F)F.[Na] (centres unmarked)	182 to 186 °C
CS(=O)(=O)NC(=O)CCSC1c2ccccc2COc2ccc(/C=C/c3ccc4cc(F)c(F)cc4n3)cc21.[Na] (centres unmarked)	187 to 192 °C
COC(=O)c1ccc2c(c1)COc1ccc(/C=C/c3ccc4c(n3)CCCC4)cc1C2SCCC(=O)O (centres unmarked)	121 to 123 °C
C[C@H](CSC1c2ccccc2CCc2ccc(/C=C/c3ccc4cc(F)c(F)cc4n3)cc21)C(=O)[O-].[Na+] (some centres unmarked)	211 to 220 °C
O=C([O-])CCSC1c2ccc(F)cc2COc2ccc(/C=C/c3ccc4cc(F)c(F)cc4n3)cc21.[Na+] (centres unmarked)	243 to 250 °C
O=C(O)CCSC1c2ccccc2COc2ccc(/C=C/c3ccc4cc(F)c(F)cc4n3)cc21 (centres unmarked)	213 to 216 °C
O=C([O-])c1ccccc1SC1c2ccccc2COc2ccc(/C=C/c3ccc4cc(F)c(F)cc4n3)cc21.[Na+] (centres unmarked) [Example 8 (b), Sodium 2-{[2-[(E)-2-(6,7-difluoro-2-quinolinyl)ethenyl]-6,11-dihydrodibenz[b,e]oxepin-11-yl]thio}benzoate]	183 to 186 °C
O=C([O-])c1cccc(SC2c3ccccc3COc3ccc(/C=C/c4ccc5cc(F)c(F)cc5n4)cc32)c1.[Na+] (centres unmarked) [Example 9 (b), Sodium 3-{[2-[(E)-2-(6,7-difluoro-2-quinolinyl)ethenyl]-6,11-dihydrodibenz[b,e]oxepin-11-yl]thio}benzoate]	184 to 188 °C
O=C([O-])c1ccc(SC2c3ccccc3COc3ccc(/C=C/c4ccc5cc(F)c(F)cc5n4)cc32)cc1.[Na+] (centres unmarked) [Example 10 (b), Sodium 4-{[2-[(E)-2-(6,7-difluoro-2-quinolinyl)ethenyl]-6,11-dihydrodibenz[b,e]oxepin-11-yl]thio}benzoate]	285 to 287 °C (dec.)
CC(C)(CC(=O)[O-])SC1c2ccccc2COc2ccc(/C=C/c3ccc4c(n3)CCCC4)cc21.[Na+] (centres unmarked) [Example 27, Sodium 3-{[2-[(E)-2-(5,6,7,8-tetrahydro-2-quinolinyl)ethenyl]-6,11-dihydrodibenz[b,e]oxepin-11-yl]thio}-3-methylbutanoate]	168 to 175 °C
